Key:
HeLa cells = experiment: FACS staining of camptothecin-treated apoptotic HeLa cells; type: cell-based
Method: HeLa cells (5×10^5 in 10 cm plates) maintained in DMEM with 10% FBS were contacted with 5 μM camptothecin to induce apoptosis. Cell staining by FITC-labeled Annexin V (Abcam, Cambridge, Mass.) or Cy5.5-labeled chicken LDH (1 μL) prepared as described in Example 1, was measured by fluorescence-activated cell sorting (FACS) analysis (with cells in annexin binding buffer (Abcam)) 12 h, 24 h, and 48 h later. Untreated HeLa cells served as negative controls.
Staining by Annexin V is known to require the presence of calcium. […] HeLa cells treated with camptothecin to induce apoptosis as in Example 9 were stained with FITC-labeled Annexin V (Abcam, Cambridge, Mass.) or Cy5.5-labeled chicken LDH in calcium-containing Annexin buffer or in calcium-free PBS. Stained cells were analyzed by FACS analysis as in Example 9.
HeLa cells (5×10^5 in 10 cm plates) maintained in DMEM with 10% FBS were contacted with 5 μM camptothecin to induce apoptosis. Cell staining was done in the media: (i) annexin buffer, (ii) DMEM supplemented with 1% FBS; (iii) DMEM supplemented with 2% FBS; (iii) DMEM supplemented with 5% FBS; (iv) DMEM supplemented with 10% FBS. For cell staining FITC-labeled Annexin V (Abcam, Cambridge, Mass.) or Cy5.5-labeled chicken LDH (1 μL) prepared as described in Example 1, was used to for FACS analysis (cells in annexin binding buffer (Abcam)) 48 h later. Untreated HeLa cells served as negative controls. […]

THP-1 cells = experiment: Staining of THP-1 cells treated with HDAC inhibitor LAQ824; type: cell-based; settings: THP-1, LAQ824 50 nM, 18 hrs
Method: To correlate cLDHB staining with other measures of apoptosis, a fluorescent probe that binds to activated caspases (pan-caspase-FLICA, Immunochemistry Tech) was used. THP-1 cells were treated with the HDAC inhibitor LAQ824 (50 nM, 18 hrs) to induce apoptosis.
Similarly, we asked whether the […] proteins performed comparably to purified recombinant LDH.

apoptotic cells [1] = experiment: Staining requirements (temperature, calcium) of cLDHB and Annexin V; type: cell-based
Method: To determine if cLDHB is actively transported into cells, staining was performed at room temperature and at 4° C.
A major limitation of Annexin V staining is the requirement for supra-physiological concentrations of calcium (Tait, J. F., D. F. Gibson, and C. Smith, Anal Biochem, 2004. 329: 112-9). To determine whether cLDHB staining required calcium, Annexin V and cLDHB staining was performed in PBS (without calcium or magnesium) or in Annexin Binding Buffer (with 2.5 mM calcium).

apoptotic cells [2] = experiment: Homogeneous multiwell apoptosis assay in normal growth medium; type: cell-based; settings: e.g., RPMI with 10% FBS, flow cytometry or High-Content Microscopy
[3] = test system: adherent and suspension cancer cell lines (e.g., HeLa, RS(4;11), THP-1, MDA-MB231); experiment: Concordance of Annexin V and cLDHB staining across cancer cell lines; type: cell-based; settings: apoptosis induced by camptothecin, doxorubicin, HDAC inhibitors
[4] = test system: non-transformed rat cardiomyocytes; experiment: Concordance of staining in doxorubicin-treated cardiomyocytes; type: cell-based; settings: apoptosis induced with doxorubicin
hepatocyte apoptosis = experiment: In vivo NIR imaging of fulminant hepatic failure (anti-Fas antibody); design: species or system mice; settings: liver region; 10 μg probe; 25 hrs after probe injection
Method: This model was used to compare LDH to Annexin V for near infrared (NIR) imaging of apoptosis. Alexa750-NHS was conjugated to Annexin V (Biovision) and chicken LDHB (XpressBio) at a labeling ratio of 2:1 per mole of protein based on prior optimization. A total of 10 male NCr nude mice were injected with 5 μg of anti-Fas antibody (Jo2, Pharmingen), and 10 animals were injected with 5 μg of an isotype-matched control antibody. Two hours later, mice were injected with 10 μg of either LDH-Alexa750 or Annexin V-Alexa750. Mice underwent NIR fluorescence imaging (IVIS Spectrum, Caliper) 25 hrs after probe injection (FIG. 8A). After spectral unmixing and background subtraction (Living Images software package), regions of interest were used to quantify fluorescence localized to the liver region (FIG. 8A), as indicated with arrowheads.

[5] = test system: Ku812-Luc+ (BCR-ABL+CML blast crisis) cells; experiment: In vivo imaging of chemotherapy-induced apoptosis (AMN107); design: species or system mice; settings: 20 μg probe after 3 doses of AMN107
Method: Subcutaneous tumors were established using Ku812-Luc+ (BCR-ABL+CML blast crisis) cells in NCr nude mice. When tumors were ˜1 cm, mice underwent bioluminescence imaging (BLI) to determine baseline tumor burden, followed by treatment with either AMN107 (nilotinib) at 100 mg/kg intraperitoneally (IP), or with vehicle. After 3 doses, animals were injected with 20 μg of LDH-Alexa750. Fluorescence imaging (FL) was performed 24 and 48 hrs after probe injection (day 4 and 5 of treatment) and BLI was repeated on day 5 of treatment (FIG. 9A).

Substance	change of staining with increasing amounts of FBS (FACS) (HeLa cells; HeLa treated with camptothecin)	stability of staining after washing (HeLa cells; washed with 6 changes of PBS)	staining of live cells negative for FLICA staining (THP-1 cells)	staining at room temperature versus 4° C. (apoptotic cells [1])	staining in PBS (without calcium or magnesium) compared to Annexin Binding Buffer (2.5 mM calcium) (apoptotic cells [1])	staining / quantification of apoptosis with probe added directly to normal growth medium (apoptotic cells [2])	concordance in staining with Annexin V [3]	concordance in staining with Annexin V [4]	mean signal intensity (photons/sec/ROI) of anti-Fas antibody treated animals above IgG control antibody treated animals (hepatocyte apoptosis)	NIR fluorescence signal from the tumors in AMN107-treated animals compared to vehicle-treated controls [5]
cLDHB: chicken LDHB used as fluorescently labeled probe; fluorochrome not stated at the place	no significant changes	entirely stable	negative	Identical results	identical under both conditions	apoptosis can be quantified	concordance in staining	Concordant staining	–	–
LDH-Alexa750: chicken LDHB (XpressBio) conjugated to Alexa750-NHS at a labeling ratio of 2:1	–	–	–	–	–	–	–	–	4.2 fold	> 4 fold
